Like-named read-outs stand apart in the source and are kept apart here.
Experiments:
AckKO(pMAD22) = experiment: Batch fermentation in serum bottles with a hydrogenase inhibitor; format: cell-based, Clostridium tyrobutyricum; conditions: hydrogenase inhibitor added to fermentation
C. tyrobutyricum mutants = tested on: C. tyrobutyricum mutants
Description: Cell growth was monitored by measuring the optical density at 600 nm (OD600) of the culture broth.

| Compound | effect on acids and butanol production from glucose (AckKO(pMAD22)) | effect on cell growth (C. tyrobutyricum mutants; 0.5% (v/v) butanol in RCM medium, strains studied) | cell growth (C. tyrobutyricum mutants; 2.0% (v/v) butanol, all strains started to grow after 2 days) | tolerated butanol concentration (C. tyrobutyricum mutants; after adaptation) | tolerated butanol concentration (C. tyrobutyricum mutants; without adaptation) |
| --- | --- | --- | --- | --- | --- |
| C[n+]1ccc(-c2cc[n+](C)cc2)cc1 [methyl viologen] | significantly decreased acids production and enhanced butanol production from glucose | – | – | – | – |
| Cc1cc2nc3ccc(N(C)C)cc3nc2cc1N.Cl [neutral red] | significantly decreased acids production and enhanced butanol production from glucose | – | – | – | – |
| butanol | – | does not have any apparent effect on cell growth | no significant cell growth was observed for the first 24 hours | up to 2.0 % (v/v) | up to 1.5 % (v/v) |

— US9284580B2 (priority 2010, dated 2016)
